# Results published in patent US8716268B2, “Nitrate esters of corticoid compounds useful as diuretics” (priority 2010, dated 2014).
# Marks after values point to notes of the source that are not given here.
# Experiments:
# NPR-A [1] = experiment: NPR-A expression in renal medulla of intact rats (western blotting); format: in vivo; settings: intact Wistar rats, 24-hour treatment, Dex 1 mg/kg (RU486 100 mg/kg in combination), mean ± SD
# Source text: (§1) To determine the effect of glucocorticoids on diuretic effect and NPR-A expression in renal medulla, 15 intact Wistar rats were randomized to receive Dexamethasone (Dex), vehicle and glucocorticoid receptor (GR) antagonist RU 486.
# [2] = Diuretic effect of Dexamethasone in intact Wistar rats; format: in vivo; settings: 24-hour treatment, Dex 1 mg/kg (RU486 100 mg/kg in combination), mean ± SD
# Source text: as §1
# V2 receptor = V2 receptor density in the kidney of rats with decompensated heart failure (western blotting); format: in vivo, Wistar rats; settings: 1 mg/kg, 24-hour treatment, mean ± SD
# Source text: (§2) To determine the effects of corticosteroids on vasopressin axis in HF, 15 Wistar rats with HF were randomized to receive NCX-1015 (n=5), or prednisolone (n=5), or vehicle (n=5).
# [3] = Diuretic effect in rats with decompensated heart failure; format: in vivo, Wistar rats; settings: 1 mg/kg, 12 hours, mean ± SD
# Experimental: (§3) To determine the effects of corticosteroids on systemic volume in HF, 15 Wistar rats with HF were randomized to receive NCX-1015 (n=5), or prednisolone (n=5), or vehicle (n=5). HF model was accomplished by left anterior descending artery ligation, and then the survived rats were raised for 12 weeks to have decompensated HF (i.e. HF with fluid accumulation). Parameters on urinary volume and urinary sodium in 12 hours were collected.
# NPR-A [4] = experiment: NPR-A expression in IMCD cells (immunofluorescence); format: cell-based, Wistar rats; design: key to NPR-A expression (24 hours) / NPR-A expression (48 hours): + = low; ++ = moderate; +++ = high; settings: for NPR-A expression (24 hours) / NPR-A expression (48 hours): rat IMCD cells
# Source text: IMCD cells from Wistar rats were isolated and cultured using the method previously described by Ye Q et al.: Endothelin inhibits NPR-A and stimulates eNOS gene expression in rat IMCD cells. Hypertension 41, 675-681 (2003). […] […] The Density of membrane NPR-A in IMCD cells were visualized by immunofluorescence.
# aldosterone = experiment: Plasma aldosterone in rats with decompensated heart failure; format: in vivo, Wistar rats; settings: 1 mg/kg, 24-hour treatment, mean ± SD
# Source text: (§4) To determine the effects of corticosteroids on RAAS in HF, 15 Wistar rats with HF were randomized to receive NCX-1015 (n=5), or prednisolone (n=5), or vehicle (n=5).
# vasopressin = experiment: Plasma vasopressin in rats with decompensated heart failure; format: in vivo, Wistar rats; settings: 1 mg/kg, 24-hour treatment, mean ± SD
# Source text: as §2
# angiotensin II = experiment: Plasma angiotensin II in rats with decompensated heart failure; format: in vivo, Wistar rats; settings: 1 mg/kg, 24-hour treatment, mean ± SD
# Source text: as §4
# NPR-A [5] = experiment: NPR-A expression in renal medulla of heart failure rats (western blotting); format: in vivo, Wistar rats
# Experimental: as §3
# AT1 receptor = AT1 receptor density in the kidney of rats with decompensated heart failure (western blotting); format: in vivo, Wistar rats; settings: 1 mg/kg, 24-hour treatment, mean ± SD
# Source text: as §4
# [6] = 10^−7 mol/L, membrane NPR-A density
# [7] = 10^−7 mol/L, membrane NPR-A density (Table 3)
# [8] = 10^−6 mol/L, membrane NPR-A density (Table 3)
# [9] = 10^−6 mol/L, membrane NPR-A density
Structure (SMILES),V2 receptor density in the kidney (V2 receptor),Urinary sodium [3] [mmol/12 h],Urinary volume [3] [ml/12 h],Plasma aldosterone (aldosterone) [ng/mL],Plasma vasopressin (vasopressin),Plasma angiotensin II (angiotensin II),"NPR-A expression in the renal medulla, higher than vehicle-treated rats (NPR-A [5]) [%]",AT1 receptor density in the kidney (AT1 receptor),other results
"C[C@@H]1C[C@H]2[C@@H]3CCC4=CC(=O)C=C[C@]4(C)[C@@]3(F)[C@@H](O)C[C@]2(C)[C@@]1(O)C(=O)CO [Dex, Dexamethasone]",,,,,,,,,NPR-A expression (NPR-A [1]): 132.2 ± 9.7* 100% of vehicle; Urinary sodium [2]: 3.50 ± 0.39 mmol/24 h; Urinary volume [2]: 16.4 ± 2.4 ml/24 h
"C[C@]12C=CC(=O)C=C1CC[C@@H]1[C@@H]2[C@@H](O)C[C@@]2(C)[C@H]1CC[C@]2(O)C(=O)COC(=O)c1ccc(CO[N+](=O)[O-])cc1 [NCX-1015, prednisolone 21-[(4′-nitro-oxymethyl)benzoate]]",54.06 ± 16.15 % of vehicle,1.43 ± 0.15,8.8 ± 1.5,0.99 ± 0.09,32.14 ± 5.47 pg/mL,412.20 ± 64.99*^& pg/ml,42.8,43.14 ± 7.07 % of vehicle,"Dose needed to attain the same effect of prednisolone on renal NPR-A (NPR-A [4]; in vitro, fraction of the prednisolone dose): about 1/10; Time needed to attain the same effect of prednisolone on renal NPR-A (NPR-A [4]; in vitro, fraction of the prednisolone time): about half; NPR-A expression (24 hours) (NPR-A [4]; [6]): ++; NPR-A expression (48 hours) (NPR-A [4]; [6]): +++"
C[C@]12CCC(=O)C=C1CC[C@@H]1[C@@H]2[C@@H](O)C[C@@]2(C)[C@H]1CC[C@]2(O)C(=O)COC(=O)c1ccc(CO[N+](=O)[O-])cc1 [NCX-1022],,,,,,,,,NPR-A expression (24 hours) (NPR-A [4]; [7]): ++; NPR-A expression (48 hours) (NPR-A [4]; [7]): +++
C[C@]12CCC(=O)C=C1CC[C@@H]1[C@@H]2[C@@H](O)C[C@@]2(C)[C@H]1CC[C@]2(O)C(=O)CO [hydrocortisone],,,,,,,,,NPR-A expression (24 hours) (NPR-A [4]; [8]): +; NPR-A expression (48 hours) (NPR-A [4]; [8]): ++
C[C@]12C=CC(=O)C=C1CC[C@@H]1[C@@H]2[C@@H](O)C[C@@]2(C)[C@H]1CC[C@]2(O)C(=O)CO [prednisolone],79.80 ± 9.44^$ % of vehicle,1.08 ± 0.1,6.1 ± 0.7,1.39 ± 0.26,45.72 ± 8.35^$ pg/ml,665.86 ± 113.90^$ pg/ml,26.5,67.06 ± 12.96 % of vehicle,NPR-A expression (24 hours) (NPR-A [4]; [9]): +; NPR-A expression (48 hours) (NPR-A [4]; [9]): ++
